# Reference: ChEMBL document CHEMBL1201862, “PubChem BioAssay data set” (2004)
#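 96-well plates; 48 h exposure; 5 concentrations. Endpoints by linear interpolation between flanking doses. Not reached: highest tested concentration assigned. Abbreviation: GI50, concentration required for 50% inhibition of growth.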 Calls of active or inactive are those of the source. No stated cut-off is given here; in the data, active = GI50 up to about 1.1 µM and inactive = higher.
# What was measured:
# Assay in all cases: growth of human tumour cells (NCI), 48 h
# 786-0 = test system: 786-0
# A498 = test system: A498
# A549 = test system: A549
# ACHN = test system: ACHN
# BT-549 = test system: BT-549
# CAKI-1 = test system: CAKI-1
# CCRF-CEM = test system: CCRF-CEM
# COLO 205 = test system: COLO 205
# DU-145 = test system: DU-145
# EKVX = test system: EKVX
# HCC 2998 = test system: HCC 2998
# HCT-116 = test system: HCT-116
# HCT-15 = test system: HCT-15
# HL-60 = test system: HL-60
# HOP-62 = test system: HOP-62
# HOP-92 = test system: HOP-92
# HT-29 = test system: HT-29
# Hs-578T = test system: Hs-578T
# IGROV-1 = test system: IGROV-1
# K562 = test system: K562
# KM12 = test system: KM12
# LOX IMVI = test system: LOX IMVI
# M14 = test system: M14
# MCF7 = test system: MCF7
# MDA-MB-231 = test system: MDA-MB-231
# MDA-MB-435 = test system: MDA-MB-435
# MDA-N = test system: MDA-N
# MOLT-4 = test system: MOLT-4
# Malme-3M = test system: Malme-3M
# NCI-H226 = test system: NCI-H226
# NCI-H23 = test system: NCI-H23
# NCI-H460 = test system: NCI-H460
# NCI-H522 = test system: NCI-H522
# NCI/ADR-RES = test system: NCI/ADR-RES
# OVCAR-3 = test system: OVCAR-3
# OVCAR-4 = test system: OVCAR-4
# OVCAR-5 = test system: OVCAR-5
# OVCAR-8 = test system: OVCAR-8
# PC-3 = test system: PC-3
# RPMI-8226 = test system: RPMI-8226
# RXF 393 = test system: RXF 393
# SF-268 = test system: SF-268
# SF-295 = test system: SF-295
# SF-539 = test system: SF-539
# SK-MEL-28 = test system: SK-MEL-28
# SK-MEL-2 = test system: SK-MEL-2
# SK-MEL-5 = test system: SK-MEL-5
# SK-OV-3 = test system: SK-OV-3
# SN12C = test system: SN12C
# SNB-19 = test system: SNB-19
# SNB-75 = test system: SNB-75
# SR = test system: SR
# SW-620 = test system: SW-620
# T47D = test system: T47D
# TK-10 = test system: TK-10
# U-251 = test system: U-251
# UACC-257 = test system: UACC-257
# UACC-62 = test system: UACC-62
# UO-31 = test system: UO-31
compound,measurement,setting,value
O=[N+]([O-])c1cccc2nc3ccccc3c(NCCC[N+]3([O-])CCOCC3)c12,GI50,786-0,0.116 µM (active)
same,GI50,A498,0.164 µM (active)
same,GI50,A549,0.0959 µM (active)
same,GI50,ACHN,0.65 µM (active)
same,GI50,BT-549,0.373 µM (active)
same,GI50,CAKI-1,2.65 µM (inactive)
same,GI50,CCRF-CEM,0.0933 µM (active)
same,GI50,COLO 205,0.0731 µM (active)
same,GI50,DU-145,0.206 µM (active)
same,GI50,EKVX,0.177 µM (active)
same,GI50,HCC 2998,0.0128 µM (active)
same,GI50,HCT-116,0.0948 µM (active)
same,GI50,HCT-15,1.36 µM
same,GI50,HL-60,0.245 µM (active)
same,GI50,HOP-62,0.119 µM (active)
same,GI50,HOP-92,0.0935 µM (active)
same,GI50,HT-29,0.0859 µM (active)
same,GI50,Hs-578T,0.433 µM (active)
same,GI50,IGROV-1,0.15 µM (active)
same,GI50,K562,0.223 µM (active)
same,GI50,KM12,0.187 µM (active)
same,GI50,LOX IMVI,0.281 µM (active)
same,GI50,M14,0.238 µM (active)
same,GI50,MCF7,0.0548 µM (active)
same,GI50,MDA-MB-231,0.247 µM (active)
same,GI50,MDA-MB-435,0.157 µM (active)
same,GI50,MDA-N,0.13 µM (active)
same,GI50,MOLT-4,0.0687 µM (active)
same,GI50,Malme-3M,0.162 µM (active)
same,GI50,NCI-H226,0.186 µM (active)
same,GI50,NCI-H23,0.0791 µM (active)
same,GI50,NCI-H460,0.0942 µM (active)
same,GI50,NCI-H522,0.0631 µM (active)
same,GI50,NCI/ADR-RES,11.4 µM (inactive)
same,GI50,OVCAR-3,0.17 µM (active)
same,GI50,OVCAR-4,0.12 µM (active)
same,GI50,OVCAR-5,0.327 µM (active)
same,GI50,OVCAR-8,0.21 µM (active)
same,GI50,PC-3,0.177 µM (active)
same,GI50,RPMI-8226,0.193 µM (active)
same,GI50,RXF 393,0.106 µM (active)
same,GI50,SF-268,0.164 µM (active)
same,GI50,SF-295,0.275 µM (active)
same,GI50,SF-539,0.275 µM (active)
same,GI50,SK-MEL-28,0.29 µM (active)
same,GI50,SK-MEL-2,0.175 µM (active)
same,GI50,SK-MEL-5,0.0782 µM (active)
same,GI50,SK-OV-3,0.281 µM (active)
same,GI50,SN12C,0.171 µM (active)
same,GI50,SNB-19,0.28 µM (active)
same,GI50,SNB-75,0.195 µM (active)
same,GI50,SR,0.026 µM (active)
same,GI50,SW-620,0.131 µM (active)
same,GI50,T47D,0.171 µM (active)
same,GI50,TK-10,0.697 µM (active)
same,GI50,U-251,0.209 µM (active)
same,GI50,UACC-257,0.351 µM (active)
same,GI50,UACC-62,0.154 µM (active)
same,GI50,UO-31,1.67 µM (inactive)
CCCCCC(=O)Nc1[nH]nnc1C(N)=O,GI50,786-0,> 100 µM (inactive)
same,GI50,A498,> 100 µM (inactive)
same,GI50,A549,> 100 µM (inactive)
same,GI50,ACHN,> 100 µM (inactive)
same,GI50,BT-549,> 100 µM (inactive)
same,GI50,CAKI-1,> 100 µM (inactive)
same,GI50,CCRF-CEM,> 100 µM (inactive)
same,GI50,COLO 205,> 100 µM (inactive)
same,GI50,DU-145,> 100 µM (inactive)
same,GI50,EKVX,> 100 µM (inactive)
same,GI50,HCC 2998,> 100 µM (inactive)
same,GI50,HCT-116,> 100 µM (inactive)
same,GI50,HCT-15,> 100 µM
same,GI50,HL-60,> 100 µM (inactive)
same,GI50,HOP-62,> 100 µM (inactive)
same,GI50,HOP-92,92.5 µM (inactive)
same,GI50,HT-29,> 100 µM (inactive)
same,GI50,Hs-578T,> 100 µM (inactive)
same,GI50,IGROV-1,> 100 µM (inactive)
same,GI50,K562,> 100 µM (inactive)
same,GI50,KM12,> 100 µM (inactive)
same,GI50,LOX IMVI,> 100 µM (inactive)
same,GI50,M14,> 100 µM (inactive)
same,GI50,MCF7,> 100 µM (inactive)
same,GI50,MDA-MB-231,> 100 µM (inactive)
same,GI50,MDA-MB-435,> 100 µM (inactive)
same,GI50,MDA-N,> 100 µM (inactive)
same,GI50,MOLT-4,> 100 µM (inactive)
same,GI50,Malme-3M,> 100 µM (inactive)
same,GI50,NCI-H226,> 100 µM (inactive)
same,GI50,NCI-H23,> 100 µM (inactive)
same,GI50,NCI-H460,> 100 µM (inactive)
same,GI50,NCI-H522,> 100 µM (inactive)
same,GI50,NCI/ADR-RES,> 100 µM (inactive)
same,GI50,OVCAR-3,> 100 µM (inactive)
same,GI50,OVCAR-4,> 100 µM (inactive)
same,GI50,OVCAR-5,> 100 µM (inactive)
same,GI50,OVCAR-8,> 100 µM (inactive)
same,GI50,PC-3,> 100 µM (inactive)
same,GI50,RPMI-8226,> 100 µM (inactive)
same,GI50,RXF 393,> 100 µM (inactive)
same,GI50,SF-268,> 100 µM (inactive)
same,GI50,SF-295,> 100 µM (inactive)
same,GI50,SF-539,> 100 µM (inactive)
same,GI50,SK-MEL-28,> 100 µM (inactive)
same,GI50,SK-MEL-2,> 100 µM (inactive)
same,GI50,SK-MEL-5,> 100 µM (inactive)
same,GI50,SK-OV-3,> 100 µM (inactive)
same,GI50,SN12C,> 100 µM (inactive)
same,GI50,SNB-19,> 100 µM (inactive)
same,GI50,SNB-75,> 100 µM (inactive)
same,GI50,SR,> 100 µM (inactive)
same,GI50,SW-620,> 100 µM (inactive)
same,GI50,T47D,> 100 µM (inactive)
same,GI50,TK-10,> 100 µM (inactive)
same,GI50,U-251,> 100 µM (inactive)
same,GI50,UACC-257,> 100 µM (inactive)
same,GI50,UACC-62,> 100 µM (inactive)
same,GI50,UO-31,> 100 µM (inactive)
